According to patent US10543159B2, “Hair papilla cell activator” (Ezaki Glico Co., Ltd., priority 2014, dated 2020):

Tests used:
[1] = test system: human follicle dermal papilla cells; test: Follicle dermal papilla cell proliferation, WST-1 (Example 1); assay type: cell-based
Method: (§1) A strain (Lot. 3092504.12) sold by PromoCell (Germany) was used as human follicle dermal papilla cells. The cells were cultured in a CO2 incubator at 37° C., using a special medium for follicle dermal papilla cells (PromoCell), unless otherwise indicated. Cell subculturing was performed as follows: cells were seeded at 5000 to 10000 cells/cm^2 in an uncoated dish, and when the cells reached subconfluent, they were treated with trypsin-EDTA (0.03%) and detached, and then re-seeded. The trypsin-EDTA treatment allows complete detachment of the cells by incubation at 37° C. for nearly 10 minutes, with a high survival rate. The medium was replaced about once every 3 days.
(1) Human follicle dermal papilla cells were seeded in a 96-well collagen I-coated plate (BD Biocoat Collagen I 96-well clear plate) at 1.6×10^3 cells/well and cultured at 37° C. for 24 hours. Cells were not seeded in two wells on the plate for blanks.
(2) Solutions of the compositions shown in the table were prepared in a concentration series starting from a 10% (w/v) aqueous solution of POs-Ca (R), a 1.84% (w/v) aqueous solution of CaCl2.2H2O, or a 12.9% (w/v) aqueous solution of G1P-Ca.
(3) The above-described aqueous solutions and the special medium were mixed at a ratio of 1:9 to prepare media having five different concentrations for each calcium species with a final concentration of 1/10 shown in Table 1. The media in each of the columns of Table 1 have the same calcium concentration. […]
(7) Absorbance at 440 nm was measured for each well, using a fluorescence microplate reader (Varioskan Flash 2.4; Thermo Fisher Scientific, US).
(8) The value obtained by subtracting the absorbance of the blank wells from the absorbance of the well of the sample was defined as the value of the relative amount of cells of the sample in each well. The degree of cell proliferation relative to the control was calculated by dividing the value of the relative amount of cells in each well, by the average value of the relative amount of cells in the control medium.

[2] = test system: human follicle dermal papilla cells; test: Follicle dermal papilla cell proliferation, Cell Counting Kit-F cell count (Example 2); assay type: cell-based; details: concentration series of Table 1A, 3 days
Method: as §1, with “The trypsin-EDTA treatment allows complete detachment of the cells by incubation at 37° C. for nearly 10 minutes, with a high survival rate.” left out
1. The procedures (1) and (3) to (5) in Example 1 were performed in the same manner as described above. Solutions of the compositions shown in the following table were prepared in a concentration series starting from a 10% (w/v) aqueous solution of POs-Ca (R), a 12.9% (w/v) aqueous solution of G1P-Ca, a 1.84% (w/v) aqueous solution of CaCl2.2H2O, or a 10% (w/v) aqueous solution of POs-Na.
2. In place of the conditions ((6), (7) and (8)) in Example 1, Cell Counting Kit-F (Dojindo Molecular Technologies, Inc.) was added to each well in accordance with the manual, and the number of cells was counted.

[3] = test system: CSPG4; test: Quantitative PCR gene expression in follicle dermal papilla cells: CSPG4; assay type: cell-based, human; details: Example 3: 0.25% POs-Ca (R) or CaCl2 of equivalent calcium, DMEM, 37° C., 5 hours; Dunnett, n=6
Method: (§3) (1) 500 μl of a special medium in which 4×10^4 cells/ml of follicle dermal papilla cells were suspended was dispensed into a type I collagen-coated 24-well cell culture plate (Corning), and cultured at a cell density of 1.0×10^4 cells/cm^2 at 37° C. for 42 hours. (2) (a) Water (control), (b) a 2.5% (w/v) aqueous solution of POs-Ca (R), and (c) a 0.457% aqueous solution of CaCl2 (having an equivalent amount of calcium to that of (b)) were prepared. Each of the solutions (a) to (c) was mixed with DMEM high glucose (Sigma, USA) at a ratio of 1:9. […]
(§4) (6) 0.5 μl of each of cDNA solutions diluted 2-fold with water, 1 μl of a solution containing 4 μM of each of primers 1 and 2 for each of the genes shown in Table 2, 5 μl of SYBR Premix Ex Taq II (Takara), and 3.5 μl of water were added, and quantitative PCR was performed on each of the genes. […] Fluorescence intensity after each cycle was measured.
(§5) (7) Using PGK1 and GAPDH as reference genes, a comparative analysis of expression levels was performed with the analysis software (Bio-Rad CFX Manager 3.0) included in CFX96Touch. Relative expression levels were calculated under the default conditions of the software.
(§6) (8) The average value of calculated expression levels was determined for the six samples derived from the cells treated under the respective conditions, and defined as the expression level relative to the control.

[4] = test system: ALPL; test: Quantitative PCR gene expression in follicle dermal papilla cells: ALPL; assay type: cell-based, human; details: Example 3: 0.25% POs-Ca (R) or CaCl2 of equivalent calcium, DMEM, 37° C., 5 hours; Dunnett, n=6
Method: as §3, §4, §5, §6

[5] = test system: tenascin C; test: Quantitative PCR gene expression in follicle dermal papilla cells: tenascin C; assay type: cell-based, human; details: Example 3: 0.25% POs-Ca (R) or CaCl2 of equivalent calcium, DMEM, 37° C., 5 hours; Dunnett, n=6
Method: as §3, §4, §5, §6

[6] = test system: versican; test: Quantitative PCR gene expression in follicle dermal papilla cells: versican; assay type: cell-based, human; details: Example 3: 0.25% POs-Ca (R) or CaCl2 of equivalent calcium, DMEM, 37° C., 5 hours; Dunnett, n=6
Method: as §3, §4, §5, §6

[7] = test system: fibronectin; test: Quantitative PCR gene expression in follicle dermal papilla cells: fibronectin; assay type: cell-based, human; details: Example 3: 0.25% POs-Ca (R) or CaCl2 of equivalent calcium, DMEM, 37° C., 5 hours; Dunnett, n=6
Method: as §3, §4, §5, §6

[8] = test system: VEGF; test: Quantitative PCR gene expression in follicle dermal papilla cells: VEGF; assay type: cell-based, human; details: Example 3: 0.25% POs-Ca (R) or CaCl2 of equivalent calcium, DMEM, 37° C., 5 hours; Dunnett, n=6
[9] = test system: VEGFB; test: Quantitative PCR gene expression in follicle dermal papilla cells: VEGFB; assay type: cell-based, human; details: Example 3: 0.25% POs-Ca (R) or CaCl2 of equivalent calcium, DMEM, 37° C., 5 hours; Dunnett, n=6
Method: as §3, §4, §5, §6

[10] = test system: VEGF; test: Expression rate of VEGF among acidic saccharide salts, quantitative PCR (Example 6); assay type: cell-based, human; details: Example 6: solutions (b)-(h) of b288 mixed 1:9 with DMEM, GAPDH reference, mean of 4 PCR assays, dihydrate
Method: (§2) (1) 500 μl of a special medium in which 2×10^4 cells/ml of follicle dermal papilla cells were suspended was dispensed into a type I collagen-coated 24-well cell culture plate (Corning), and cultured at a cell density of 5×10^3 cells/cm^2 at 37° C. for 72 hours. […] Oji Cornstarch Co., Ltd.), (f) a 2.5% (w/v) aqueous solution of a phosphorylated oligosaccharide magnesium salt (POs-Mg; […] (3) Each of the solutions (a) to (c) was mixed with DMEM high glucose (Sigma, USA) at a ratio of 1:9. (4) Following the procedures (4) to (6) in Example 2, mRNA was extracted from the cells, cDNA was prepared, and then the expression levels of the VEGF, FGF-7, and GAPDH genes were quantified by quantitative PCR. (7) Using GAPDH as a reference gene, a comparative analysis of expression levels was performed with the analysis software (Bio-Rad CFX Manager 3.0) included in CFX96Touch. The expression levels were calculated under the default conditions of the software.

[11] = test system: FGF-7; test: Expression rate of FGF-7 among acidic saccharide salts, quantitative PCR (Example 6); assay type: cell-based, human; details: Example 6: solutions (b)-(h) of b288 mixed 1:9 with DMEM, GAPDH reference, mean of 4 PCR assays, dihydrate
Method: as §2

Compound: O.O.[Ca+2].[Cl-].[Cl-] [CaCl2, calcium chloride dihydrate]
- proliferation rate tendency at low concentrations ([1]; 0.0625% and 0.12% POs-Ca (R), 0.0115% and 0.023% calcium chloride): tended to decrease
- increase of cell proliferation relative to the control ([1]; 0.25% POs-Ca (R) or calcium chloride with equivalent calcium, 3 days, WST-1): 5.6%
- proliferation rate at high concentrations ([1]; 0.5% and 1.0% POs-Ca (R), 0.092% and 0.184% calcium chloride): tended to increase
- number of cells compared to that without addition [2]: not observed
- expression of CSPG4 gene compared to control [3]: significant increases in the expression of genes were not observed
- expression of ALPL gene compared to control [4]: significant increases in the expression of genes were not observed
- expression of tenascin C gene compared to control [5]: significant increases in the expression of genes were not observed
- expression of versican gene compared to control [6]: significantly decreased
- expression of fibronectin gene compared to control [7]: significantly decreased
- expression of VEGF gene compared to control [8]: significant increases in the expression of genes were not observed
- expression of VEGFB compared to control [9]: significantly increased
- VEGF, relative values of the expression levels based on the control as 1 [10]: 0.80
- VEGF, relative values of the expression levels based on the control as 1 ([10]; listed as calcium chloride): either comparable to or below the control
- FGF7, relative values of the expression levels based on the control as 1 [11]: 1.02
- FGF7, relative values of the expression levels based on the control as 1 ([11]; listed as calcium chloride): either comparable to or below the control
